Results reported in US20240366784A1, “INJECTABLE HYDROGEL COMPOSITIONS AND METHODS OF USE THEREOF” (Drexel University, priority 2023, published 2024).

Columns and labels:
[1] = typically reported; cited from earlier work
[2] = tested on: Bone marrow derived macrophages (BMDMs); experiment: nanoString gene expression analysis in zymosan-activated bone marrow derived macrophages; type: cell-based, mouse; conditions: zymosan 100 μg/mL, drug 1 μM, 24 hrs, 91-gene panel
Description: Cells were maintained under standard culture conditions (37° C., 5% CO2) in the indicated medium which was replenished every two days. The murine MF cell lines, RAW 264.7 (ATCC) and RAW-Blue™ (InvivoGen), were cultured in Dulbecco's Modified Eagle Medium (DMEM) supplemented with heat-inactivated fetal bovine serum (FBS), and 1% penicillin-streptomycin (Pen-Strep). RAW-Blue™ media was additionally supplemented by 100 μg/ml Normocin with the addition of 100 μg/ml of Zeocin every other passage to maintain selection pressure, as recommended by the manufacturer. Cells were passaged at 70% confluency. Primary MF were derived from murine and human tissues. Bone marrow derived macrophages (BMDMs) were isolated and derived according to standard protocols. Marrow was extracted from the surgically resected femur and tibia of male C57BL/6 mice, dissociated, and filtered using a 40 μm strainer. Red blood cells were lysed with ammonium chloride, and recovered cells were plated at 2×10^6 cells/well in 24 well plates and maintained in Iscove's Modification of DMEM (IMDM) supplemented with 10% heat-inactivated FBS, 1% Pen-Strep, and 10 ng/mL recombinant mouse macrophage colony-stimulating factor (M-CSF; PeproTech). Primary human monocytes were isolated from peripheral blood (New York Blood Center) from a single healthy human donor via density centrifugation as previously described in the literature. […]

RAW264.7 cells = experiment: qPCR transcriptional analysis of zymosan-activated RAW264.7 macrophages; type: cell-based, murine; conditions: zymosan 100 μg/mL, drug 1 μM, 24 hrs
Description: For secondary identification of M2-promoting drugs, transcriptional analysis using qPCR was performed. RAW264.7 cells were plated at 1×10^6 cells/well in 24 well plates. After 24 h, media was replaced, and IL-4 (10 ng/mL, PeproTech) or zymosan (100 μg/mL) were included to serve as internal controls for M2-like and M1-like phenotypes, respectively. Treatment groups were concurrently activated via zymosan and treated with 1 μM drug concentrations, n=3 per group. After 24 hrs, cells were lysed by freezing, RNA was extracted (RNEasy Mini Kit; Qiagen), and cDNA synthesis was performed (High-Capacity cDNA Reverse Transcription Kit; Fisher). Samples were subject to qPCR using Taqman Fast Advanced Master Mix and probes (Fisher) for analysis of hprt (Mm01545399_m1), nos2 (Mm00440502_m1), il12b (Mm01288989_m1), il6 (Mm00446190_m1), mrc1 (Mm00485148_m1), il10 (Mm01288386_m1), and arg1 (Mm00475988_m1). Data is expressed as a fold change in gene expression using the ΔΔCt method, relative to the hprt and zymosan-treated controls.

Row | SMILES | Keq of polyaromatic guests with CD [1] | cluster analysis of macrophage phenotype [2] | change in il12b expression among six selected drugs (RAW264.7 cells) | change in mrc1 and il10 expression among six selected drugs (RAW264.7 cells) | expression of M1-like genes (nos2, il6, il12b) (RAW264.7 cells; qPCR) | expression of M2-like genes (mrc1, arg1, il10) (RAW264.7 cells; qPCR)
1 | COc1cccc2c1C(=O)c1c(O)c3c(c(O)c1C2=O)C[C@@](O)(C(=O)CO)C[C@@H]3O[C@H]1C[C@H](N)[C@H](O)[C@H](C)O1 [doxorubicin] | single micromolar | – | – | – | – | –
2 | COc1ccc(C(=O)Nc2c(Cl)cncc2Cl)cc1OC1CCCC1 [piclamilast] | – | intermediate to M1 and M2 control phenotypes | greatest decrease | greatest increase | significantly downregulated | upregulation
3 | N[C@@H](Cc1c[nH]c2ccccc12)C(=O)O [tryptophan] | single micromolar | – | – | – | – | –
